Here are results for two compounds from patent US20230181564A1, “Potent Tetrahydroquinolone Eliminates Apicomplexan Parasites” (The University of Chicago, priority 2020, published 2023).

The test system of one assay is P. berghei sporozoites. The settings on record: doses between 1 and 20 mg/kg; not the prodrug; cited from earlier work.
The test system of assay [1] is T. gondii RH-YFP tachyzoites. The experiment in a line: In vitro challenge assay, RH strain YFP tachyzoites in HFF. The settings on record: requires hepatic metabolism. The assay is classed as cell-based, Toxoplasma gondii. The method, then: PBS Sol/Toxicity pH7.4 refers to solubility of the compound in Phosphate Buffered Saline (PBS) at pH7.4. […] Tachy/Brady IC50 was determined in studies in which cultures of parasites in HFF were treated with varying concentrations of the compound and there was 50% inhibition of the replication (number) of parasites. Parasites were RH-YFP expressing tachyzoites (Tachy) and EGS (Brady) strains. Studies of effects of inhibitors on HFF or on T.gondii tachyzoites were performed with triplicate wells in at least two biological replicate experiments. Studies of effects on bradyzoites were performed at least twice in at least two biological replicate experiments. Compounds with much less inhibition of mammalian than T. gondii cytochrome bc in the saffarine enzyme assay (indicated by **) provide potential to further develop compounds, if unanticipated toxicity occurs from JAG21.
RH strain YFP Tachyzoites. Protocol was adapted from Fomovska et al. (2012; 2012a) for HFF. […] RH-YFP, lysed from host cells by passing twice through a 27-gauge needle, were counted, then diluted to 32,000/mL in IMDM-C. […] Plates were read using a fluorimeter (Synergy H4 Hybrid Reader, BioTek) to ascertain amount of relative fluorescence units (RFU) YFP, to measure parasite burden after treatment. Data were collected using Gen5 software with IC50 calculated by graphical analysis in Excel. […]

For the compound `COc1cc2[nH]c(C)c(-c3ccc(Oc4ccc(OC(F)(F)F)cc4)cc3)c(=O)c2cc1Cl` [ELQ 300], the “Efficacy in the P. berghei in vivo model” value with P. berghei sporozoites is on record as “not effective”.
`COc1cc(C)c2c(Oc3cccc(C(F)(F)F)c3)c(OC)cc(NC(C)CCCN)c2n1` (centres unmarked) [Tafenoquine]: in assay [1], the “Activity in tissue culture” value is “not active”.
